Residues, ends and D or L forms follow the SMILES beside them. Primed or numbered codes have the meaning given here. No end group written: not given here. FITC′ = fluorescein isothiocyanate
Experiments:
P. aeruginosa ATCC 10145 = assay: CFU-assay, P. aeruginosa-cidal activity; type: cell-based, Pseudomonas aeruginosa
[1] = system: Candida albicans ATCC 24433; assay: CFU-assay, Candida albicans-cidal activity; type: cell-based; conditions: pH 5.5, 0.25% glucose
Procedure: Thus, within the present invention, the antimicrobial activity is generally measured in nutrient deficient 10 mM sodium phosphate buffer pH 5.5, containing 0.25% glucose, using the CFU-assay according to Steinberg and Lehrer, 1997 (supra), unless otherwise indicated. The CFU-assay allows determination of the minimal bactericidal concentration (MBC, e.g., MBC90 and MBC100; i.e. the concentration of compound required to achieve a specified reduction in bacterial cell number (microbial death or killing)). […]
HR 1-17 affects C. albicans ATCC 24433 with highest activity at pH 5.5 in the absence of TSB in the medium (see Tables 12, 24). […] Furthermore, the substitution of any of the Arg residues by Gly leads to a dramatic reduction or loss of candidacidal activity (see Table 24).

S. aureus ATCC 6538 = assay: CFU-assay, S. aureus-cidal activity; type: cell-based, Staphylococcus aureus; conditions: pH 5.5, 0.25% glucose
Procedure: Thus, within the present invention, the antimicrobial activity is generally measured in nutrient deficient 10 mM sodium phosphate buffer pH 5.5, containing 0.25% glucose, using the CFU-assay according to Steinberg and Lehrer, 1997 (supra), unless otherwise indicated. The CFU-assay allows determination of the minimal bactericidal concentration (MBC, e.g., MBC90 and MBC100; i.e. the concentration of compound required to achieve a specified reduction in bacterial cell number (microbial death or killing)).
Various peptides corresponding to repeat domains of hornerin (HR 1-11: HRNR 2606-2628; HR 1-17: HRNR 2656-2684 and HR 1-18: HRNR 2656-2677) were tested for P. aeruginosa ATCC 10145-cidal activity in 10 mM Na-phosphate buffer pH 5.5, containing 0.25% glucose by counting the numbers of colonies of surviving bacteria at serial, twofold dilutions from 300 μg/ml down to 19 ng/ml of each peptide (CFU-assay; Steinberg and Lehrer, 1997, Methods Mol. Biol. 78, 169-186).
Staphylococcus aureus is a major skin pathogen, which causes skin infections, in particular in atopic dermatitis. The sensitivity of S. aureus ATCC 6538 towards several CIDAMPs was assessed using the CFU-assay as above (see Example 1). HR 1-18, which lacks S. aureus.-bactericidal activity, is converted in a S. aureus-cidal peptide, when all His are replaced by Arg (HR 1-18 4H-4R; see Table 13 and FIG. 9). […] HR 1-18 4H-4R is rich in Ser and Arg and contains a single Leu residue. When this single Leu was replaced by Gly in S. aureus-cidal HR 1-18 4H-4R (forming HR 1-18 4H-4R/L-G), S. aureus-cidal activity was abolished at both pH 7.0 and pH 5.5 (see Table 13 and FIG. 9).

[2] = Cytotoxicity (resazurin) assay
Procedure: For the cytotoxicity (resazurin) assay, HEK293 cells were counted manually in a Neubauer haemocytometer and plated at a density of 4000 cells/well into each well of the 384-well plates containing the 25×(2 μl) concentrated compounds. The medium used was Dulbecco's modified eagle medium (DMEM) supplemented with 10% foetal bovine serum (FBS). Cells were incubated together with the compounds for 20 h at 37° C., 5% CO2. To measure cytotoxicity, 5 μl (equals 100 μM final) resazurin was added to each well after incubation, and incubated for further 3 h at 37° C. with 5% CO2.
After final incubation fluorescence intensity was measured as F ex 560/10 nm, em 590/10 nm (F560/590) using a Tecan M1000 Pro monochromator plate reader. […] The concentration dependent percentage cytotoxicity was fitted to a dose response function (using Pipeline Pilot) and CC50 values determined.

[3] = system: methicillin-resistant S. aureus strain (ATCC 43300); type: cell-based, Staphylococcus aureus; conditions: ATCC 43300, 18 h
Procedure: Furthermore, sensitivity of a methicillin-resistant S. aureus strain (ATCC 43300) was investigated for palmitoylated CIDAMPs in a microtiter plate screening model, with incubation in Mueller-Hinton medium at 37° C. for 18 h using resazurin as a marker for cell viability.
A sample of each culture was then diluted 40-fold in fresh broth and incubated at 37° C. for 1.5-3 h. […] All the plates were covered and incubated at 37° C. for 18 h.
Inhibition of bacterial growth was determined using resazurin as a marker for cell viability. Resazurin was added to each well, at 0.001% final concentration, and plates incubated at 37° C. for 2 h. Fluorescence intensity was measured, using F (top read), ex 560/10 nm, em 590/10 nm, using a Tecan M1000 Pro monochromator plate reader.

C. albicans ATCC 928 = conditions: for MIC, C. albicans ATCC 90028: ATCC 928; for MIC: ATCC 928, 18 h, pH 7.4
Hemolysis assay = type: cell-based
Procedure: For the hemolysis assays EDTA-blood was centrifuged at 800×g for 10 min, and the plasma and buffy coat were removed. The erythrocytes were washed three times and resuspended in 5% PBS, pH 7.4. The cells were then incubated with end-over-end rotation for 1 h at 37° C. in the presence of different concentrations of peptides (0, 3, 10, 30, 60 μm). 0.1% Triton X-100 (Sigma-Aldrich) served as positive control. The samples were then centrifuged at 800×g for 10 min.
The absorbance of hemoglobin release was measured at 540 nm and is expressed as % of Triton X-100-induced hemolysis. These values of triplicates were plotted with Graph Pad Prism 4 as a dose response curve and the CC50 was determined.

| Molecule | MBC90 (P. aeruginosa ATCC 10145; pH 5.0, 0.25% glucose) | MBC100 (P. aeruginosa ATCC 10145; pH 5.0, 0.25% glucose) | MBC90 [1] | MBC100 [1] | CC50 [2] | MIC, S. aureus ATCC 43300 [3] | MIC, C. albicans ATCC 90028 (C. albicans ATCC 928) | MIC (C. albicans ATCC 928) | HC50 (Hemolysis assay) | MIC, C. neoformans ATCC 208821 (C. neoformans) | other results |
| --- | --- | --- | --- | --- | --- | --- | --- | --- | --- | --- | --- |
| HGSRSGQSSRGERHGSSSGSSSH (Peptide derived from human hornerin (HR 1-11)) | 0.075 µg/mL | 2.35 µg/mL | 9.38 µg/mL | 150 µg/mL |  |  |  |  |  |  | MBC100 (P. aeruginosa ATCC 10145; pH 5.5, 0.25% glucose): 2.35 µg/mL; MBC90 (P. aeruginosa ATCC 10145; pH 5.5, 1% TSB): 2.35 µg/mL; MBC100 (P. aeruginosa ATCC 10145; pH 5.5, 1% TSB): >300 µg/mL |
| FITC-GRHGSGLGHSSSHGQHGSGSGR ({FITC′}-GRHGSGLGHSSSHGQHGSGSGR) [FITC-HR 1-18] | 0.15 µg/mL | 1.18 µg/mL | 2.35 µg/mL | 75 µg/mL |  |  |  |  |  |  | MBC90 (S. aureus ATCC 6538): 300 µg/mL; MBC100 (S. aureus ATCC 6538): >300 µg/mL |
| CCCCCCCCCCCCCCCC(=O)NCC(=O)N[C@@H](CCCNC(=N)N)C(=O)NCC(=O)N[C@@H](CCCNC(=N)N)C(=O)O [Pal-GR4, Pal-GRGR] (HELM PEPTIDE1{[CCCCCCCCCCCCCCCC(=O)[*:2]].G.R.G.R}$$$$V2.0) |  |  |  |  | > 32 µg/mL | ≥8 µg/mL | ≥8 µg/mL | 1 to 32 µg/mL | 100 µg/mL | ≥8 µg/mL |  |
| CCCCCCCCCCCCCCCC(=O)N[C@@H](CO)C(=O)N[C@@H](Cc1c[nH]cn1)C(=O)N[C@@H](Cc1c[nH]cn1)C(=O)N[C@@H](CCCNC(=N)N)C(=O)N[C@@H](Cc1c[nH]cn1)C(=O)N[C@@H](Cc1ccccc1)C(=O)N[C@@H](CCCNC(=N)N)C(=O)N[C@@H](CO)C(=O)N[C@@H](Cc1c[nH]cn1)C(=O)N[C@@H](CCC(N)=O)C(=O)N[C@@H](CS)C(=O)N[C@@H](CCCNC(=N)N)C(=O)N[C@@H](CCCNC(=N)N)C(=O)O [Pal-LCE3C55-67] (HELM PEPTIDE1{[CCCCCCCCCCCCCCCC(=O)[*:2]].S.H.H.R.H.F.R.S.H.Q.C.R.R}$$$$V2.0) |  |  |  |  | > 32 µg/mL | ≥32 µg/mL | ≥16 µg/mL | 1 to 32 µg/mL | > 100 µg/mL | ≥1 µg/mL |  |
| SHHRHFRSHQCRR [LCE3C55 67] |  |  |  |  |  | ≥32 µg/mL |  |  |  | ≥8 µg/mL |  |
| CCCCCCCCCCCCCCCC(=O)N[C@@H](Cc1c[nH]cn1)C(=O)NCC(=O)N[C@@H](CO)C(=O)N[C@@H](CCCNC(=N)N)C(=O)N[C@@H](CO)C(=O)NCC(=O)N[C@@H](CCC(N)=O)C(=O)N[C@@H](CO)C(=O)N[C@@H](CO)C(=O)N[C@@H](CCCNC(=N)N)C(=O)NCC(=O)N[C@@H](CCC(=O)O)C(=O)N[C@@H](CCCNC(=N)N)C(=O)N[C@@H](Cc1c[nH]cn1)C(=O)NCC(=O)N[C@@H](CO)C(=O)N[C@@H](CO)C(=O)N[C@@H](CO)C(=O)NCC(=O)N[C@@H](CO)C(=O)N[C@@H](CO)C(=O)N[C@@H](CO)C(=O)N[C@@H](Cc1c[nH]cn1)C(=O)O [Pal-HR 1-11] (HELM PEPTIDE1{[CCCCCCCCCCCCCCCC(=O)[*:2]].H.G.S.R.S.G.Q.S.S.R.G.E.R.H.G.S.S.S.G.S.S.S.H}$$$$V2.0) |  |  |  |  | > 32 µg/mL | >32 µg/mL |  |  |  |  |  |

Reference: patent US11479587B2, “Cationic intrinsically disordered antimicrobial peptides” (priority 2016, dated 2022)
